The values that follow are results of earlier work, collected in patent publication US20080081067A1, “SUSTAINED RELEASE PHARMACEUTICAL COMPOSITIONS OF VENLAFAXINE AND PROCESS FOR PREPARATION THEREOF” (priority 2006, published 2008).

The subject of this data set is monoamine oxidase. The conditions noted are these: background statement.

Molecules are shown by their SMILES.

For `COc1ccc(C(CN(C)C)C2(O)CCCCC2)cc1` (stereo not shown) [Venlafaxine], the “inhibitory activity on monoamine oxidase” value was “no inhibitory activity”.
